Assay results taken from patent US10238713B2, “Cyclic tetrapeptides and therapeutic applications thereof” (LODZ UNIVERSITY OF TECHNOLOGY, priority 2010, dated 2019).
Non-standard residues stand in square brackets, D forms with d. Residues, ends and D or L forms follow the SMILES beside them. β3hF = N[C@H](CC(=O)O)Cc1ccccc1

How the values were obtained:
[1] = system: mouse splenocyte cultures, humoral immune response to SRBC; assay: Secondary humoral immune response in vitro to SRBC (AFC number); format: cell-based
Protocol: Mice were sensitized intraperitoneally with 0.2 ml of 5% (v/v) SRBC suspension. After four days spleens from these mice were isolated and single cell suspensions prepared by homogenization in PBS solution. After washing the cells in PBS by centrifugation, the cells were re-suspended in the culture medium at a density of 5×10^6 cells/ml. The cells were subsequently distributed to 24-well culture plates in 1 ml aliquots and 0.05 ml of 0.005% SRBC was added as the antigen to each well. The compounds were added to the cultures at the beginning of the four-day incubation period at concentration ranges of 1-100 μg/ml. The number of antibody-forming cells (AFC) in the cultures was determined using a method of local hemolysis in agar gel according to Mishell et al., J Exp Med, 1967, 126, 423-442.

[2] = system: splenocytes; assay: Toxicity test on splenocytes (24 h, MTT); format: cell-based, mouse; settings: 100 μg/ml (printed 100 μg/m for I-C)
Protocol: Cell survival was determined by MTT colorimetric method. The results were presented as mean optical density (OD) at 550 nm from 4 wells. The viability of cells in respective compound concentrations was compared to appropriate DMSO control groups (100% survival), corresponding to respective compound concentrations.

[3] = system: concanavalin A-induced mouse splenocyte proliferation; assay: Proliferative response of splenocytes to concanavalin A (MTT); format: cell-based; settings: 50-100 μg/ml
Protocol: Spleens were pressed against a plastic screen into 0.83% NH4Cl solution to lyse erythrocytes (5 min incubation at room temperature). The cells were then washed twice with Hanks' medium, passed through glass wool column to remove debris, and re-suspended in the culture medium, referred to below as the “culture medium”, consisting of RPMI-1640, supplemented with 10% of fetal calf serum, L-glutamine, sodium pyruvate, 2-mercaptoethanol, streptomycin and penicillin (100 μg/ml). The cells were then distributed into 96-well flat-bottom tissue culture plates (Nunc) at a density of 2×10^5 cells/100 μl/well. Con A (2.5 μg/ml) was added to induce cell proliferation. The compounds were added to the cultures at doses of 1-100 μg/ml. After a three-day incubation, cell proliferation was determined using the colorimetric MTT method (Hansen M B, J Immunol Methods, 1989, 119, 203-210). The results were presented as the mean optical density (OD) at 550 nm ±SE from quadriplicate determinations (wells).

[4] = system: human peripheral mononuclear blood cells (PBMC); assay: Cytotoxic test on human blood mononuclear cells (24 h, colorimetric); settings: at 40 μg/ml, FIG. 5
Protocol: For evaluation of toxicity of the compound of formula I-A, human peripheral mononuclear blood cells (PBMC) were chosen. This fraction consists of approximately 80% lymphocytes and 20% monocytes. As a reference compound, cyclolinopeptide (CLA) was selected since the compound of formula I-A shares a part of the sequence of CLA.
After centrifugation at 1200×g for 20 min, the mononuclear cells from the interphase were harvested and washed 3 times with PBS. The cells were re-suspended in a standard culture medium consisting of RPMI-1640 medium, L-glutamine, sodium pyruvate, 2-mercaptoethanol, 100 μg/ml each of streptomycin and penicillin, and 10% fetal calf serum. The cells were distributed to in 96-well flat-bottom culture plates at density of 2×10^5/100 μl. The compounds (formula I-A and CLA) were initially dissolved in DMSO (5 mg/500 μl) and subsequently in the culture medium. DMSO, appropriately diluted with the culture medium, was used as a control. After 24 h incubation in a cell culture incubator, cell viability was determined by a colorimetric method (Hansen et al., J Immunol Methods, 1989, 119, 203-210).

Compound	suppression of in vitro humoral immune response to SRBC ([1]; 10 μg/m as printed)	suppression of in vitro humoral immune response to SRBC ([1]; 100 μg/m as printed)	toxicity to splenocytes [2]	effect on concanavalin A-induced mouse splenocyte proliferation [3]	cytotoxic effect on PBMC [4]
O=C1C[C@H](Cc2ccccc2)NC(=O)[C@@H]2CCCN2C(=O)[C@@H]2CCCN2C(=O)C[C@H](Cc2ccccc2)N1 [I-C] (cyclo(PP[β3hF][β3hF]))	33%	80%	70%	strong inhibitory effect	
CC[C@H](C)[C@@H]1NC(=O)[C@H](CC(C)C)NC(=O)[C@H](Cc2ccccc2)NC(=O)[C@H](Cc2ccccc2)NC(=O)[C@@H]2CCCN2C(=O)[C@@H]2CCCN2C(=O)[C@H](C(C)C)NC(=O)[C@H](CC(C)C)NC(=O)[C@H]([C@@H](C)CC)NC1=O [CLA, Cyclolinopeptide A] (cyclo(FFLIILVPP))					statistically significant cytotoxic effect
